# Numbered stars: 1 amine (or outer) side, 2 acyl side, 3 side chain; on linkers, the order of the positions; unused ones are H or OH. Square brackets hold non-standard residues; d marks the D form. Peptide text beside a SMILES is read from it. Trp(βS-Me,7-OMe) = COc1cccc2c([C@H](C)[C@H](N)C(=O)O)c[nH]c12; X21 = COc1cccc2c([C@H](C)[C@H](N[*:1])C(=O)[*:2])c(C)[nH]c12; Trp(7-CN) = N#Cc1cccc2c(C[C@H](N)C(=O)O)c[nH]c12; Trp(7-Cl) = N[C@@H](Cc1c[nH]c2c(Cl)cccc12)C(=O)O; Phe(3-COOH) = N[C@@H](Cc1cccc(C(=O)O)c1)C(=O)O; Phe(4-CONH2) = NC(=O)c1ccc(C[C@H](N)C(=O)O)cc1; Phe(4-COOH) = N[C@@H](Cc1ccc(C(=O)O)cc1)C(=O)O; X30 = O=C([C@@H](N[*:1])[C@H](O)c1ccncc1)[*:2]; 4Pal(3S-Me) = C[C@@H](c1ccncc1)[C@H](N)C(=O)O; dPro(trans-4-F) = O=C(O)[C@H]1C[C@H](F)CN1; Pip(5R-OH) = O=C(O)[C@@H]1CC[C@@H](O)CN1; X1 = O=C([C@@H]1CC[C@H](N[*:1])C1)[*:2]; 4Pal = N[C@@H](Cc1ccncc1)C(=O)O; NMeE = CN[C@@H](CCC(=O)O)C(=O)O; dHyp = O=C(O)[C@H]1C[C@H](O)CN1; Cit = NC(=O)NCCC[C@H](N)C(=O)O; Ahp(2) = CCCCC[C@H](N)C(=O)O; αMeS = C[C@](N)(CO)C(=O)O; Nle = CCCC[C@H](N)C(=O)O; Sar = CNCC(=O)O
# What was measured:
# [1] = biological target: T1, human soluble TNFR1 (sTNFR1) (Homo sapiens, UniProt P19438); assay: Human sTNFR1-peptide displacement assay (LanthaScreen Eu TR-FRET binding assay)
# T1 construct: made in house; host or cells: Sf21 (baculovirus)
# T1 sequence (P19438 with tags, fused parts or gaps): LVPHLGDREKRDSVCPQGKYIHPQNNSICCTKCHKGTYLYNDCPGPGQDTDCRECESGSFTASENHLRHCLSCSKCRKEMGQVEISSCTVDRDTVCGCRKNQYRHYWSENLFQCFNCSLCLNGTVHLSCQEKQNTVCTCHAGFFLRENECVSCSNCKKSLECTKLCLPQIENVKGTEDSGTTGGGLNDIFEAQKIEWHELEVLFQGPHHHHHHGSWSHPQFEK
# Procedure, shortened: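 Readout is the 665/615 nm TR-FRET ratio (Eu anti-His donor, streptavidin-Alexa647 acceptor), normalized to DMSO and saturating displacer, fit by Morrison-based five-parameter logistic for Kd^app. His-tagged sTNFR1 (1-211) prebound to 100 nM biotinylated peptide SEQ ID NO.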
# human TNFR2 ECD protein = biological target: T2, human TNFR2 ECD protein (Homo sapiens, UniProt P20333); assay: SPR off-target binding (selectivity) to human TNFR2 ECD
# T2 construct: HRV 3C protease cleavage site (C); 6His (C, cleaved yes); made in house; host or cells: Sf21 insect cells (baculovirus), secreted
# T2 sequence (P20333 23-257): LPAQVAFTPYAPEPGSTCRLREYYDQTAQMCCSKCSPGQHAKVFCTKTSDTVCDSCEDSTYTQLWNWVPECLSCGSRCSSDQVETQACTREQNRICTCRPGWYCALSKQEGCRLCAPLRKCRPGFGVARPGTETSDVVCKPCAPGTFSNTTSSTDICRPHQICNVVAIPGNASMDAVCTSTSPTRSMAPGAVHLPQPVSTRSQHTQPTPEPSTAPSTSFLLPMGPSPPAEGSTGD
# Procedure, shortened: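 Peptide binding kinetics read by SPR in HEPES pH 7.4 running buffer with 2% DMSO, with TNFR2 ECD tested in parallel for off-target binding. Receptor ECDs, insect-cell expressed and biotinylated at C-terminal avi-tag, were captured via streptavidin. KA derived from association and dissociation rate constants.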
SMILES,Kd [1] [nM],Kd (human TNFR2 ECD protein) [nM]
"CCCCC[C@@H]1NC(=O)[C@@H]2CC[C@@H](C2)NC(=O)[C@H]([C@@H](C)c2c[nH]c3c(OC)cccc23)NC(=O)CN(C)C(=O)[C@H](Cc2ccc(C(N)=O)cc2)NC(=O)[C@H](Cc2ccc(C(N)=O)cc2)NC(=O)[C@](C)(CO)NC(=O)[C@H](Cc2c[nH]c3c(C#N)cccc23)NC(=O)[C@H](Cc2ccc(C(=O)O)cc2)NC(=O)[C@H](CC(N)=O)NC(=O)[C@H]2C[C@H](O)CN2C(=O)[C@H](Cc2c[nH]c3ccccc23)NC(=O)[C@H](CO)NC(=O)[C@H]([C@H](O)c2ccncc2)NC1=O [SEQ ID NO. 16] (cyclo([Ahp(2)][X30]SW[dHyp]N[Phe(4-COOH)][Trp(7-CN)][αMeS][Phe(4-CONH2)][Phe(4-CONH2)][Sar][Trp(βS-Me,7-OMe)][X1]))",0.11,> 1000
"CCCC[C@@H]1NC(=O)[C@@H]2CC[C@@H](C2)NC(=O)[C@H]([C@@H](C)c2c[nH]c3c(OC)cccc23)NC(=O)CN(C)C(=O)[C@H](Cc2cccc(C(=O)O)c2)NC(=O)[C@H](Cc2ccc(C(N)=O)cc2)NC(=O)[C@](C)(CO)NC(=O)[C@H](Cc2c[nH]c3c(Cl)cccc23)NC(=O)[C@H](Cc2ccc(C(=O)O)cc2)NC(=O)[C@H](CC(N)=O)NC(=O)[C@H]2C[C@H](O)CN2C(=O)[C@H](Cc2c[nH]c3ccccc23)NC(=O)[C@@H]2CC[C@@H](O)CN2C(=O)[C@H](Cc2ccncc2)NC1=O [SEQ ID NO. 17] (cyclo([4Pal][Pip(5R-OH)]W[dHyp]N[Phe(4-COOH)][Trp(7-Cl)][αMeS][Phe(4-CONH2)][Phe(3-COOH)][Sar][Trp(βS-Me,7-OMe)][X1][Nle]))",0.16,> 1000
"CCCC[C@@H]1NC(=O)[C@@H]2CC[C@@H](C2)NC(=O)[C@H]([C@@H](C)c2c[nH]c3c(OC)cccc23)NC(=O)CN(C)C(=O)[C@H](Cc2ccc(C(N)=O)cc2)NC(=O)[C@H](Cc2ccc(C(N)=O)cc2)NC(=O)[C@](C)(CO)NC(=O)[C@H](Cc2c[nH]c3c(C#N)cccc23)NC(=O)[C@H](Cc2ccc(C(=O)O)cc2)NC(=O)[C@H](CC(N)=O)NC(=O)[C@H](CCC(=O)O)N(C)C(=O)[C@H](Cc2c[nH]c3ccccc23)NC(=O)[C@@H]2CC[C@@H](O)CN2C(=O)[C@H](Cc2ccncc2)NC1=O [SEQ ID NO. 19] (cyclo([4Pal][Pip(5R-OH)]W[NMeE]N[Phe(4-COOH)][Trp(7-CN)][αMeS][Phe(4-CONH2)][Phe(4-CONH2)][Sar][Trp(βS-Me,7-OMe)][X1][Nle]))",0.08,> 1000
"CCCC[C@@H]1NC(=O)[C@@H]2CC[C@@H](C2)NC(=O)[C@H]([C@@H](C)c2c[nH]c3c(OC)cccc23)NC(=O)CN(C)C(=O)[C@H](Cc2ccc(C(=O)O)cc2)NC(=O)[C@H](Cc2ccc(C(N)=O)cc2)NC(=O)[C@](C)(CO)NC(=O)[C@H](Cc2c[nH]c3c(Cl)cccc23)NC(=O)[C@H](Cc2ccncc2)NC(=O)[C@H](CC(N)=O)NC(=O)[C@H]2C[C@H](F)CN2C(=O)[C@H](Cc2c[nH]c3ccccc23)NC(=O)[C@@H]2CC[C@@H](O)CN2C(=O)[C@H](Cc2ccncc2)NC1=O [SEQ ID NO. 101] (cyclo([4Pal][Trp(7-Cl)][αMeS][Phe(4-CONH2)][Phe(4-COOH)][Sar][Trp(βS-Me,7-OMe)][X1][Nle][4Pal][Pip(5R-OH)]W[dPro(trans-4-F)]N))",0.05,> 1000
CCCC[C@@H]1NC(=O)[C@@H]2CC[C@@H](C2)NC(=O)[C@H]([C@@H](C)c2c(C)[nH]c3c(OC)cccc23)NC(=O)CN(C)C(=O)[C@H](Cc2ccc(C(=O)O)cc2)NC(=O)[C@H](Cc2ccc(C(N)=O)cc2)NC(=O)[C@](C)(CO)NC(=O)[C@H](Cc2c[nH]c3c(Cl)cccc23)NC(=O)[C@H](Cc2ccc(C(=O)O)cc2)NC(=O)[C@H](CC(N)=O)NC(=O)[C@H]2C[C@H](O)CN2C(=O)[C@H](Cc2c[nH]c3ccccc23)NC(=O)[C@@H]2CC[C@@H](O)CN2C(=O)[C@H](Cc2ccncc2)NC1=O [SEQ ID NO. 106] (cyclo([4Pal][Pip(5R-OH)]W[dHyp]N[Phe(4-COOH)][Trp(7-Cl)][αMeS][Phe(4-CONH2)][Phe(4-COOH)][Sar][X21][X1][Nle])),0.05,> 1000
"CCCCC[C@@H]1NC(=O)[C@@H]2CC[C@@H](C2)NC(=O)[C@H]([C@@H](C)c2c[nH]c3c(OC)cccc23)NC(=O)CN(C)C(=O)[C@H](Cc2ccc(C(N)=O)cc2)NC(=O)[C@H](Cc2ccc(C(N)=O)cc2)NC(=O)[C@](C)(CO)NC(=O)[C@H](Cc2c[nH]c3c(C#N)cccc23)NC(=O)[C@H](Cc2ccc(C(=O)O)cc2)NC(=O)[C@H](CC(N)=O)NC(=O)[C@H]2C[C@H](O)CN2C(=O)[C@H](Cc2c[nH]c3ccccc23)NC(=O)[C@H](CCCNC(N)=O)NC(=O)[C@H]([C@@H](C)c2ccncc2)NC1=O [SEQ ID NO. 110] (cyclo([Ahp(2)][4Pal(3S-Me)][Cit]W[dHyp]N[Phe(4-COOH)][Trp(7-CN)][αMeS][Phe(4-CONH2)][Phe(4-CONH2)][Sar][Trp(βS-Me,7-OMe)][X1]))",0.14,–

# Source: patent US20240287138A1, “CYCLIC PEPTIDES FOR INHIBITING TNF RECEPTOR 1 ACTIVITY” (Merck Sharp & Dohme LLC, priority 2023, published 2024)
